Measurements taken from patent US9505762B2, “Purine derivatives as CB2 receptor agonists” (Hoffmann-La Roche Inc., priority 2013, dated 2016).

Legend:
human CB2 receptors = human CB2 receptors (Homo sapiens (Human), UniProt P34972); assay: functional cAMP assay, CB2; type: cell-based; settings: CHO cells expressing human CB2
Description: (§1) The growth medium was exchanged with Krebs Ringer Bicarbonate buffer with 1 mM IBMX and incubated at 30° C. for 30 min. Compounds were added to a final assay volume of 100 μl and incubated for 30 min at 30° C. Using the cAMP-Nano-TRF detection kit the assay (Roche Diagnostics) was stopped by the addition of 50 μl lysis reagent (Tris, NaCl, 1.5% Triton X100, 2.5% NP40, 10% NaN3) and 50 μl detection solutions (20 μM mAb Alexa700-cAMP 1:1, and 48 μM Ruthenium-2-AHA-cAMP) and shaken for 2 h at room temperature. The time-resolved energy transfer is measured by a TRF reader (Evotec Technologies GmbH), equipped with a ND:YAG laser as excitation source. The plate is measured twice with the excitation at 355 nm and at the emission with a delay of 100 ns and a gate of 100 ns, total exposure time 10 s at 730 (bandwidth 30 nm) or 645 nm (bandwidth 75 nm), respectively.
(§2) EC50 values were determined using Activity Base analysis (ID Business Solution, Limited).

human CB1 receptors = human CB1 receptors (Homo sapiens (Human), UniProt P21554); assay: functional cAMP assay, CB1; type: cell-based; settings: CHO cells expressing human CB1
Chain of human CB1 receptors (P21554 whole entry): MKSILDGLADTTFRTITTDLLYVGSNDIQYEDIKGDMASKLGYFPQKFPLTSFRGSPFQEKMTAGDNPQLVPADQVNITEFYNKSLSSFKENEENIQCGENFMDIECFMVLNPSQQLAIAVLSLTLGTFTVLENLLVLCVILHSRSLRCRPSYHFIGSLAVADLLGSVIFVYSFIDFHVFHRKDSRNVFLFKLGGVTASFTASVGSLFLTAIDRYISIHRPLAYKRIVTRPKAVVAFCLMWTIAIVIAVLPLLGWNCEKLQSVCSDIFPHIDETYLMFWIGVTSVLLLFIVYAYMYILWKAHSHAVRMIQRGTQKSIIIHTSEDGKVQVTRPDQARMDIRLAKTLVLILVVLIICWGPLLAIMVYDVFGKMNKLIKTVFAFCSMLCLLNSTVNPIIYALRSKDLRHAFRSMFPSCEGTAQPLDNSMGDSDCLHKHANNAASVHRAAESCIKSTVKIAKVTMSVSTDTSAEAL
Description: as §1, §2

Chain of human CB2 receptors (P34972 whole entry): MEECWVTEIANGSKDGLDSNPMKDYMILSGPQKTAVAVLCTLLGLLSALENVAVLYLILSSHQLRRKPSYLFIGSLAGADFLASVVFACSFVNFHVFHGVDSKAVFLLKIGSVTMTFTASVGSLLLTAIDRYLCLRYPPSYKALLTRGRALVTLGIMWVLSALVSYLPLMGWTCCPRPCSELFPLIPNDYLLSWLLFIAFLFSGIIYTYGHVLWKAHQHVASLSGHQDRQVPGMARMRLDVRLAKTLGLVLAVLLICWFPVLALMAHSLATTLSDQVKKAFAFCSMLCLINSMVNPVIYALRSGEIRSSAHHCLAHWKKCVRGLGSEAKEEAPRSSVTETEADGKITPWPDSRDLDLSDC

Row | SMILES | EC50 (human CB2 receptors) | EC50 (human CB1 receptors)
1 | CC(=O)N[C@H]1CCN(c2nc(C(C)(C)C)nc3c2ncn3Cc2ccccc2S(C)(=O)=O)C1 [Example 52, N—[(S)-1-[2-tert-butyl-9-[(2-methylsulfonylphenyl)methyl]purin-6-yl]pyrrolidin-3-yl]acetamide] | 229 nM | > 10000 nM
2 | CC(=O)N[C@H]1CCN(c2nc(C(C)(C)C)nc3c2ncn3Cc2cccnc2Cl)C1 [Example 53, N—[(S)-1-[2-tert-butyl-9-[(2-chloropyridin-3-yl)methyl]purin-6-yl]pyrrolidin-3-yl]acetamide] | 175 nM | > 10000 nM
3 | CC(=O)N[C@H]1CCN(c2nc(C(C)(C)C)nc3c2ncn3Cc2ncccc2Cl)C1 [Example 54, N—[(S)-1-[2-tert-butyl-9-[(3-chloropyridin-2-yl)methyl]purin-6-yl]pyrrolidin-3-yl]acetamide] | 388 nM | > 10000 nM
4 | CC(C)(C)c1nc(N2CCC3(COC3)C2)c2ncn(Cc3ccccc3Cl)c2n1 [Example 56, 7-[2-tert-butyl-9-[(2-chlorophenyl)methyl]purin-6-yl]-2-oxa-7-azaspiro[3.4]octane] | 55.8 nM | > 10000 nM
5 | CC(C)(C)c1nc(N2CCC3(COC3)C2)c2ncn(Cc3cccc(Cl)c3)c2n1 [Example 57, 7-[2-tert-butyl-9-[(3-chlorophenyl)methyl]purin-6-yl]-2-oxa-7-azaspiro[3.4]octane] | 466 nM | > 10000 nM
6 | CC(C)(C)c1nc(N2CCC3(COC3)C2)c2ncn(Cc3ccc(Cl)cc3)c2n1 [Example 58, 7-[2-tert-butyl-9-[(4-chlorophenyl)methyl]purin-6-yl]-2-oxa-7-azaspiro[3.4]octane] | 506 nM | > 10000 nM
7 | CC(C)(C)c1nc(N2CCC3(COC3)C2)c2ncn(Cc3ccccc3C(F)(F)F)c2n1 [Example 59, 7-[2-tert-butyl-9-[[2-(trifluoromethyl)phenyl]methyl]purin-6-yl]-2-oxa-7-azaspiro[3.4]octane] | 16.7 nM | > 10000 nM
8 | CC(C)(C)c1nc(N2CCC3(COC3)C2)c2ncn(Cc3ccccc3S(C)(=O)=O)c2n1 [Example 60, 7-[2-tert-butyl-9-[(2-methylsulfonylphenyl)methyl]purin-6-yl]-2-oxa-7-azaspiro[3.4]octane] | 175 nM | > 10000 nM
9 | CC(C)(C)c1nc(N2CCC3(COC3)C2)c2ncn(Cc3cccnc3Cl)c2n1 [Example 61, 7-[2-tert-butyl-9-[(2-chloropyridin-3-yl)methyl]purin-6-yl]-2-oxa-7-azaspiro[3.4]octane] | 29.6 nM | > 10000 nM
10 | Cc1nonc1Cn1cnc2c(N3CCC4(COC4)C3)nc(C(C)(C)C)nc21 [Example 62, 7-[2-tert-butyl-9-[(4-methyl-1,2,5-oxadiazol-3-yl)methyl]purin-6-yl]-2-oxa-7-azaspiro[3.4]octane] | 146 nM | > 10000 nM
11 | COCCn1cnc2c(N3CCC4(COC4)C3)nc(C(C)(C)C)nc21 [Example 63, 7-[2-tert-butyl-9-(2-methoxyethyl)purin-6-yl]-2-oxa-7-azaspiro[3.4]octane] | 661 nM | > 10000 nM
12 | CC1(O)CCN(c2nc(C(C)(C)C)nc3c2ncn3Cc2ccccc2Cl)C1 (stereo not drawn) [Example 64, 1-[2-tert-butyl-9-[(2-chlorophenyl)methyl]purin-6-yl]-3-methylpyrrolidin-3-ol] | 13.4 nM | > 10000 nM
13 | CC1(O)CCN(c2nc(C(C)(C)C)nc3c2ncn3Cc2cccc(Cl)c2)C1 (stereo not drawn) [Example 65, 1-[2-tert-butyl-9-[(3-chlorophenyl)methyl]purin-6-yl]-3-methylpyrrolidin-3-ol] | 91.6 nM | > 10000 nM
14 | CC1(O)CCN(c2nc(C(C)(C)C)nc3c2ncn3Cc2ccccc2C(F)(F)F)C1 (stereo not drawn) [Example 67, 1-[2-tert-butyl-9-[[2-(trifluoromethyl)phenyl]methyl]purin-6-yl]-3-methylpyrrolidin-3-ol] | 9 nM | > 10000 nM
15 | CC1(O)CCN(c2nc(C(C)(C)C)nc3c2ncn3Cc2cccnc2Cl)C1 (stereo not drawn) [Example 68, 1-[2-tert-butyl-9-[(2-chloropyridin-3-yl)methyl]purin-6-yl]-3-methylpyrrolidin-3-ol] | 24.8 nM | > 10000 nM
16 | CC1(O)CCN(c2nc(C(C)(C)C)nc3c2ncn3Cc2ncccc2Cl)C1 (stereo not drawn) [Example 69, 1-[2-tert-butyl-9-[(3-chloropyridin-2-yl)methyl]purin-6-yl]-3-methylpyrrolidin-3-ol] | 46.8 nM | > 10000 nM
17 | CC1(O)CCN(c2nc(C(C)(C)C)nc3c2ncn3Cc2ccccc2S(C)(=O)=O)C1 (stereo not drawn) [Example 74, 1-[2-tert-butyl-9-[(2-methylsulfonylphenyl)methyl]purin-6-yl]-3-methylpyrrolidin-3-ol] | 88.4 nM | > 10000 nM

Row | SMILES | EC50 (human CB2 receptors) | EC50 (human CB1 receptors)
18 | CC(=O)N[C@H]1CCN(c2nc(C(C)(C)C)nc3c2ncn3Cc2c[nH]nc2C(F)(F)F)C1 [Example 75, N—[(S)-1-[2-tert-butyl-9-[[3-(trifluoromethyl)-1H-pyrazol-4-yl]methyl]purin-6-yl]pyrrolidin-3-yl]acetamide] | 280 nM | > 10000 nM
19 | CC(C)(C)c1nc(N2CCC3(COC3)C2)c2ncn(Cc3c[nH]nc3C(F)(F)F)c2n1 [Example 76, 7-[2-tert-butyl-9-[[3-(trifluoromethyl)-1H-pyrazol-4-yl]methyl]purin-6-yl]-2-oxa-7-azaspiro[3.4]octane] | 153 nM | > 10000 nM
20 | CC(=O)N[C@H]1CCN(c2nc(C(C)(C)C)nc3c2ncn3Cc2n[nH]cc2C(F)(F)F)C1 [Example 77, N—[(S)-1-[2-tert-butyl-9-[[4-(trifluoromethyl)-1H-pyrazol-3-yl]methyl]purin-6-yl]pyrrolidin-3-yl]acetamide] | 205 nM | > 10000 nM
21 | CC(C)(C)c1nc(N2CCC3(COC3)C2)c2ncn(Cc3n[nH]cc3C(F)(F)F)c2n1 [Example 78, 7-[2-tert-butyl-9-[[4-(trifluoromethyl)-1H-pyrazol-3-yl]methyl]purin-6-yl]-2-oxa-7-azaspiro[3.4]octane] | 17.5 nM | > 10000 nM
22 | Cc1nnc(Cn2cnc3c(N4CC(F)(F)C(F)(F)C4)nc(C(C)(C)C)nc32)o1 [Example 79, 2-[[2-tert-butyl-6-(3,3,4,4-tetrafluoropyrrolidin-1-yl)purin-9-yl]methyl]-5-methyl-1,3,4-oxadiazole] | 116 nM | > 10000 nM
23 | Cc1noc(Cn2cnc3c(N4CC(F)(F)C(F)(F)C4)nc(C(C)(C)C)nc32)n1 [Example 80, 5-[[2-tert-butyl-6-(3,3,4,4-tetrafluoropyrrolidin-1-yl)purin-9-yl]methyl]-3-methyl-1,2,4-oxadiazole] | 179 nM | > 10000 nM
24 | COCCn1cnc2c(N3CC(F)(F)C(F)(F)C3)nc(C(C)(C)C)nc21 [Example 83, 2-tert-butyl-9-(2-methoxyethyl)-6-(3,3,4,4-tetrafluoropyrrolidin-1-yl)purine] | 64.6 nM | > 10000 nM
25 | CC1(O)CCN(c2nc(C(C)(C)C)nc3c2ncn3Cc2c[nH]nc2C(F)(F)F)C1 (stereo not drawn) [Example 84, 1-[2-tert-butyl-9-[[3-(trifluoromethyl)-1H-pyrazol-4-yl]methyl]purin-6-yl]-3-methylpyrrolidin-3-ol] | 79.3 nM | > 10000 nM
26 | CC1(O)CCN(c2nc(C(C)(C)C)nc3c2ncn3Cc2n[nH]cc2C(F)(F)F)C1 (stereo not drawn) [Example 85, 1-[2-tert-butyl-9-[[4-(trifluoromethyl)-1H-pyrazol-3-yl]methyl]purin-6-yl]-3-methylpyrrolidin-3-ol] | 22.1 nM | > 10000 nM
27 | CC(C)(C)c1nc(N2CC[C@H](O)C2)c2ncn(Cc3ccccc3C(F)(F)F)c2n1 [Example 86, (3S)-1-[2-tert-butyl-9-[[2-(trifluoromethyl)phenyl]methyl]purin-6-yl]pyrrolidin-3-ol] | 1.1 nM | > 10000 nM
28 | CC(C)(C)c1nc(N2CC[C@H](O)C2)c2ncn(Cc3cccc(Cl)c3)c2n1 [Example 87, (3S)-1-[2-tert-butyl-9-[(3-chlorophenyl)methyl]purin-6-yl]pyrrolidin-3-ol] | 2.1 nM | > 10000 nM
29 | CC(C)(C)c1nc(N2CCC3(COC3)C2)c2ncn(CCC(F)(F)F)c2n1 [Example 89, 7-[2-tert-butyl-9-(3,3,3-trifluoropropyl)purin-6-yl]-2-oxa-7-azaspiro[3.4]octane] | 573 nM | > 10000 nM
30 | CC(C)(C)c1nc(N2CC[C@H](O)C2)c2ncn(Cc3ccccc3S(C)(=O)=O)c2n1 [Example 90, (3S)-1-[2-tert-butyl-9-[(2-methylsulfonylphenyl)methyl]purin-6-yl]pyrrolidin-3-ol] | 7.9 nM | > 10000 nM
31 | CC(C)(C)c1nc(N2CC[C@H](O)C2)c2ncn(Cc3cccnc3Cl)c2n1 [Example 91, (3S)-1-[2-tert-butyl-9-[(2-chloropyridin-3-yl)methyl]purin-6-yl]pyrrolidin-3-ol] | 1.7 nM | > 10000 nM
32 | CC(C)(C)c1nc(N2CC[C@H](O)C2)c2ncn(Cc3ncccc3Cl)c2n1 [Example 92, (3S)-1-[2-tert-butyl-9-[(3-chloropyridin-2-yl)methyl]purin-6-yl]pyrrolidin-3-ol] | 8.4 nM | > 10000 nM
33 | CC(C)(C)c1nc(N2CC(F)(F)C(F)(F)C2)c2ncn(CCC(F)(F)F)c2n1 [Example 93, 2-tert-butyl-6-(3,3,4,4-tetrafluoropyrrolidin-1-yl)-9-(3,3,3-trifluoropropyl)purine] | 89.8 nM | > 10000 nM
